Assay results: US20180346988A1, “ZNF532 FOR DIAGNOSIS AND TREATMENT OF CANCER” (THE BRIGHAM AND WOMEN'S HOSPITAL, INC., priority 2015, published 2018)

Key:
Assay type in all cases: cell-based, human
[1] = system: PVT1 RNA; test: RNA-seq at the MYC locus (PVT1 lncRNA) in 24335 cells; conditions: JQ1 administered for 4 h prior to RNA collection
Protocol: (FIG. 11A) Localization of ZNF532-NUT and effects on transcription at the MYC locus based on ChIP-seq and RNA-seq. JQ1 was administered for 4 h prior to RNA collection.
Morphologic differentiation is evidenced by accumulation of abundant cytoplasm, enlargement of nuclei and cytoplasm, and formation of cohesive spheres. […] It has been shown that an important function of ZNF532-NUT is to maintain expression of MYC. […] One such megadomain occupies a region proximal to MYC (FIG. 11A). […] Consistent with its role in MYC upregulation, knockdown of ZNF532-NUT leads to decreased MYC protein levels (FIG. 11B).

[2] = system: ZNF532 locus; test: Nascent RNA-seq of transcription at the ZNF532 locus in NMC cell lines; conditions: NMC cell lines 797 and 1015, in the presence of JQ1
Description: Transcription is seen in two of the NMC cell lines, 797 and 1015, and is shown to diminish in the presence of JQ1.

[3] = system: 24335 cells; test: Differentiation and proliferation of ZNF532-NUT+ 24335 NMC cells (involucrin/keratin expression, H&E); conditions: BET inhibitor treatment
Protocol: FIGS. 8A-8B describe experimental data showing differentiation of ZNF532-NUT+24335 cells in response to NUT knockdown or BET inhibitor.
(FIG. 10A) Immunoblot of involucrin expression, a marker of squamous differentiation. (FIG. 10B) H&E showing differentiation as evidenced by formation of cohesive spherical clusters, and marked accumulation of cytoplasm. (FIG. 10C) 500 nM JQ1 BET inhibitor was administered. Dose-response to JQ1 measured by cell titer glo. (FIG. 10D) Effects of ZNF532 and NUT knock down on number of mitoses quantified by immunohistochemistry using anti-histone H3phospho-serine antibody.
The importance of ZNF532 in NMC was underscored by simultaneous discovery of a patient with pulmonary NMC (FIG. 5A) harboring a ZNF532-NUT fusion gene, that was identified by whole transcriptome RNAsequencing (FIG. 5B), and confirmed by cytogenetics, fluorescence in situ hybridization (FISH), RT-PCR, western blotting, and immunofluorescence (FIGS. 5C-5F, 6). The fusion gene is comprised of exon 3 of ZNF532 fused to intron 1 of NUT (FIG. 7). The resulting predicted 1500 amino acid protein includes the N-terminal 778 amino acids of ZNF532, encoding only the first two of eleven zinc fingers and a large unstructured domain, part of intron 1 of NUT, and its remaining exons 2-7 (FIGS. 8A-8B). […]

Structure (SMILES): Cc1sc2c(c1C)C(c1ccc(Cl)cc1)=N[C@@H](CC(=O)OC(C)(C)C)c1nnc(C)n1-2 [JQ1, (S)-tert-butyl 2-(4-(4-chlorophenyl)-2,3,9-trimethyl-6H-thieno[3,2-f][1,2,4]triazolo[4,3-a][1,4]diazepin-6-yl)acetate]
- expression of the PVT1 RNA [1]: decreased expression
- transcription at the ZNF532 locus [2]: diminish
- differentiation of 24335 cells (expression of involucrin, marker of terminal squamous differentiation) [3]: results in differentiation
